According to patent US9861685B2, “Methods of treating hemoglobinopathies” (Duke University, priority 2012, dated 2018):

What was measured:
[1] = system: SS RBCs co-incubated with polymorphonuclear cells (PMNs); conditions: previously shown; SS RBCs co-incubated with naive PMNs; cited from earlier work
[2] = system: β-arrestin1/2; test: Western blot of SS RBC membrane ghosts for β-arrestin1/2 and phosphorylated β-arrestin1
[3] = target: T1, GRK2 (Homo sapiens, UniProt P25098); test: Western blot of SS RBC membrane ghosts for total and phosphorylated GRK2
T1 sequence (P25098 1-689): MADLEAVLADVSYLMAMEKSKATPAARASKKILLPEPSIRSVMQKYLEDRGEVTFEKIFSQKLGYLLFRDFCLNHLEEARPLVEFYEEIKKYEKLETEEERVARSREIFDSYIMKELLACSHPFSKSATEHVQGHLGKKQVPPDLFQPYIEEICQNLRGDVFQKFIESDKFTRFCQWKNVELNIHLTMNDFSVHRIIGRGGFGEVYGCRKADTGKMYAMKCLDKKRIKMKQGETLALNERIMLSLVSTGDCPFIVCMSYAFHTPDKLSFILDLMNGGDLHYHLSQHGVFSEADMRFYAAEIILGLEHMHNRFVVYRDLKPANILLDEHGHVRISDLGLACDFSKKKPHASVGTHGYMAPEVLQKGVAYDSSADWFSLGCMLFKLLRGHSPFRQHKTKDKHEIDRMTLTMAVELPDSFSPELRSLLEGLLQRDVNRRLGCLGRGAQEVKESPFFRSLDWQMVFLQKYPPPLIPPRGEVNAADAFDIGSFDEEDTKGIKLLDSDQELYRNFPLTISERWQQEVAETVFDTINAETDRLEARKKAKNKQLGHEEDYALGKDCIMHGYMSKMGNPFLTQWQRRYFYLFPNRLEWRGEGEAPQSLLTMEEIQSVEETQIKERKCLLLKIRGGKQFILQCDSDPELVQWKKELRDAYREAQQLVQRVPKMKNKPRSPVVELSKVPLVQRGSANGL

[4] = system: ERK; format: cell-based, human
[5] = system: ERK1/2; conditions: see WO 2012/149547; cited from earlier work
[6] = system: ERK; conditions: cited from earlier work
[7] = system: β-arrestin1/2; format: cell-based, human
[8] = system: cAMP; conditions: SS RBCs
[9] = system: human SS RBC adhesion to vascular endothelium and vaso-occlusion; test: Intravital microscopy of ex vivo treated human SS RBCs infused into nude mice (window chamber); format: in vivo; conditions: nude mice n=2; SS RBCs treated ex vivo with 20 nM epinephrine 1 min
Description: For some in vivo adhesion studies, packed SS RBCs were fluorescently labeled with the dye Dil (Molecular Probes Inc., Eugene, Oreg.), following the manufacturer's instructions, prior to cell treatment. Dil has been used in previous in vivo studies, and this dye has no effect on RBC suspension viscosity and RBC survival in circulation.^30 Cell morphology was checked by microscopy.
All animal experiments were carried out in accordance with protocols approved by the Duke University Animal Care and Use Committee. Female athymic homozygous nude mice (nu-/nu-) were between 8-12 weeks of age (Charles River Laboratories, Wilmington, Mass.).
General anesthesia was achieved by intra-peritoneal injection of 100 mg/kg of ketamine (Abbott Laboratory, Chicago, Ill.) and 10 mg/kg of xylazine (Bayer, Shawnee Mission, Kans.). […]
Animals were infused with washed SS RBCs (300 μl hematocrit (Hct) 50% in saline) treated with epinephrine at 20 nM for 1 min or 5 μM βARK1 for 1 hour followed by treatment with 20 nM epinephrine for 1 min. […] Microcirculatory events and cell adhesion were simultaneously recorded using a Trinitron Color video monitor (PVM-1353 MD, Sony) and JVC videocassette recorder (BR-S3784, VCR King, Durham, N.C.) connected to a digital video camera C2400 (Hamamatsu Photonics K.K., Japan). […]

Compound: N#CC(=C(/N)Sc1ccccc1N)/C(C#N)=C(\N)Sc1ccccc1N [U0126]
- ability of SS RBCs to promote PMN adhesion to ECs [1]: decreased
- effect on CT-induced β-arrestin1/2 membrane-translocation [2]: significantly inhibited
- effect on PTx-induced β-arrestin1/2 recruitment to the membrane [2]: failed to have an effect
- effect on levels of β-arrestin1 phosphorylation (CT-treated) [2]: decreased
- effect on CT-induced GRK2 membrane-translocation [3]: significantly abrogated
- effect on CT-induced GRK2 phosphorylation [3]: significantly abrogated
- effect on PTx-induced GRK2 membrane-translocation [3]: significantly abrogated
- effect on PTx-induced GRK2 phosphorylation [3]: significantly abrogated
- effect on CT-increased ERK phosphorylation [4]: inhibited

Compound: Cn1cnc2c(F)c(Nc3ccc(Br)cc3Cl)c(C(=O)NOCCO)cc21 [AZD6244]
- ability of SS RBCs to promote PMN adhesion to ECs [1]: decreased

Compound: CNC[C@H](O)c1ccc(O)c(O)c1 [Epi, epinephrine]
- β-arrestin1/2 membrane-recruitment (translocation) [2]: enhanced
- β-arrestin1 phosphorylation [2]: enhanced
- ERK phosphorylation/activation in normal RBCs [5]: fails to become phosphorylated/activated
- ERK phosphorylation [6]: enhanced
- basal phosphorylation of β-arrestin1 [7]: failed to increase
- membrane-recruitment of β-arrestin1/2 [7]: failed to increase
- SCD patient samples tested in which cAMP levels increased [8]: 50%
- SS RBC adhesion in inflamed venules [9]: marked adhesion
- vaso-occlusion (occlusion of vessels) [9]: induced occlusion

Compound: COc1cc(F)c(F)c(Nc2ccc(I)cc2F)c1NS(=O)(=O)C1(C[C@H](O)CO)CC1 [RDEA119]
- ability of SS RBCs to promote PMN adhesion to ECs [1]: decreased

Compound: CC(=O)Nc1cccc(-n2c(=O)n(C3CC3)c(=O)c3c(Nc4ccc(I)cc4F)n(C)c(=O)c(C)c32)c1 [GSK1120212]
- ability of SS RBCs to promote PMN adhesion to ECs [1]: decreased
